Literature values in patent US6002023A, “2-debenzoyl-2-acyl taxol derivatives and method for making same” (Virginia Tech Intellectural Properties, Inc., priority 1997, dated 1999).

Details: in some assays; cited from earlier work

## CC(=O)O[C@@]12CO[C@@H]1C[C@H](O)[C@@]1(C)C(=O)[C@H](O)C3=C(C)[C@@H](OC(=O)[C@H](O)[C@@H](NC(=O)OC(C)(C)C)c4ccccc4)C[C@@](O)([C@@H](OC(=O)c4ccccc4)[C@H]21)C3(C)C [Taxotere]
  activity relative to taxol: approximately twice as active as taxol
